According to ChEMBL document CHEMBL5042556, “Lead Optimization to Advance Protease-Activated Receptor-1 Antagonists in Early Discovery” (J Med Chem, 2022):
One block for each compound: values may come before it.

Tests used:
[1] = Ex vivo inhibition of PAR-1 in cynomolgus monkey whole blood assessed as inhibition of TRAP-induced platelet aggregation at 0.3 mg/kg, po measured after 24 hrs; format: functional; settings: Macaca fascicularis
[2] = Plasma protein binding in dog assessed as unbound fraction; format: ADME, cell-free, Canis lupus familiaris
[3] = Clearance in dog hepatocyte measured per 10^6 cells; format: ADME, cell-based, Canis lupus familiaris; settings: hepatocytes
[4] = Clearance in rat hepatocyte measured per 10^6 cells; format: ADME, cell-based; settings: hepatocytes
P-glycoprotein = experiment: Effect on rat P-glycoprotein expressed in MDCK cells assessed as efflux ratio of apparent permeability across basolateral to apical side over apical to basolateral side (reference value: 0.6 to 0.8); format: ADME, cell-based, MDCKII-LE; settings: MDCK-MDR1
[5] = Volume of distribution in intravenously dosed cynomolgus monkey; format: ADME, organism-based, Macaca fascicularis; settings: in vivo, iv
[6] = MRT in cynomolgus monkey at 0.3 mg/kg, iv; format: ADME, organism-based, Macaca fascicularis; settings: in vivo
[7] = Unbound clearance in intravenously dosed cynomolgus monkey; format: ADME, organism-based, Macaca fascicularis; settings: in vivo, iv
[8] = Clearance in intravenously dosed cynomolgus monkey; format: ADME, organism-based, Macaca fascicularis; settings: in vivo, iv
[9] = Volume of distribution in rat at 0.3 mg/kg, iv; format: ADME, organism-based; settings: in vivo
[10] = Clearance in mouse hepatocyte measured per 10^6 cells; format: ADME, cell-based; settings: hepatocytes
[11] = Ex vivo inhibition of PAR-1 in cynomolgus monkey whole blood assessed as inhibition of TRAP-induced platelet aggregation at 1 mg/kg, po measured after 24 hrs; format: functional; settings: Macaca fascicularis
[12] = MRT in intravenously dosed cynomolgus monkey; format: ADME, organism-based, Macaca fascicularis; settings: in vivo, iv
[13] = MRT in intravenously dosed dog; format: ADME, organism-based, Canis lupus familiaris; settings: in vivo, iv
[14] = Oral bioavailability in rat; format: ADME, organism-based; settings: in vivo
[15] = Clearance in human hepatocyte measured per 10^6 cells; format: ADME, cell-based; settings: hepatocytes
[16] = target: T1, Voltage-gated inwardly rectifying potassium channel KCNH2 (Homo sapiens, UniProt Q12809); experiment: Inhibition of [35S]MK-499 binding to hERG expressed in HEK293 cells; format: toxicity, cell-based
[17] = Oral bioavailability in dog; format: ADME, organism-based, Canis lupus familiaris; settings: in vivo
[18] = target: T2, Proteinase-activated receptor 1 (Homo sapiens, UniProt P25116); experiment: Antagonist activity at human PAR-1 expressed in HEK293 cells assessed as reduction in TRAP induced calcium signal at 3 uM by FLIPR analysis; format: functional, cell-based
T2 sequence (P25116 whole entry): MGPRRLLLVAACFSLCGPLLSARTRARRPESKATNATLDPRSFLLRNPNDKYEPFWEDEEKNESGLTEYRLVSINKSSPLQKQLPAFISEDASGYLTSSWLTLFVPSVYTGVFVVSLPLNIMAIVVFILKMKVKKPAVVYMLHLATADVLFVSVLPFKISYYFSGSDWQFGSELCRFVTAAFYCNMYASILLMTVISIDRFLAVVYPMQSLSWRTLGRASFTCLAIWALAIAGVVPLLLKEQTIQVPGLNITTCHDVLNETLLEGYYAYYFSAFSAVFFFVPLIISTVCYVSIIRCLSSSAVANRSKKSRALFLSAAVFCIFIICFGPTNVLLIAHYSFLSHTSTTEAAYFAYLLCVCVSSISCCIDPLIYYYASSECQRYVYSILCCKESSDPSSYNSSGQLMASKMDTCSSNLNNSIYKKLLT

[19] = Oral bioavailability in cynomolgus monkey; format: ADME, organism-based, Macaca fascicularis; settings: in vivo
[20] = Unbound volume of distribution in rat at 3 mg/kg, iv; format: ADME, organism-based; settings: in vivo
[21] = Unbound volume of distribution in intravenously dosed dog; format: ADME, organism-based, Canis lupus familiaris; settings: in vivo, iv
P-glycoprotein (ABCB1) = P-glycoprotein (ABCB1) (Homo sapiens, UniProt P08183); experiment: Effect on human P-glycoprotein expressed in MDCK cells assessed as efflux ratio of apparent permeability across basolateral to apical side over apical to basolateral side (reference value: 0.6 to 0.8); format: ADME, cell-based, MDCKII-LE; settings: MDCK-MDR1
[22] = Unbound volume of distribution in intravenously dosed cynomolgus monkey; format: ADME, organism-based, Macaca fascicularis; settings: in vivo, iv
[23] = MRT in rat at 1 mg/kg, iv; format: ADME, organism-based; settings: in vivo
[24] = MRT in rat at 3 mg/kg, iv; format: ADME, organism-based; settings: in vivo
[25] = Clearance in rat at 3 mg/kg, iv; format: ADME, organism-based; settings: in vivo
[26] = Clearance in intravenously dosed dog; format: ADME, organism-based, Canis lupus familiaris; settings: in vivo, iv
[27] = Unbound clearance in rat at 3 mg/kg, iv; format: ADME, organism-based; settings: in vivo
[28] = Apparent permeability in MDCKII-LE cells; format: ADME, cell-based, Canis lupus familiaris; settings: dog, MDCK
[29] = Plasma protein binding in rat assessed as unbound fraction; format: ADME, cell-free
[30] = Plasma protein binding in cynomolgus monkey assessed as unbound fraction; format: ADME, cell-free, Macaca fascicularis
[31] = Unbound clearance in intravenously dosed dog; format: ADME, organism-based, Canis lupus familiaris; settings: in vivo, iv
[32] = target: T1, Voltage-gated inwardly rectifying potassium channel KCNH2; experiment: Inhibition of [35S]MK-499 binding to hERG expressed in HEK293 cells at 60 uM; format: toxicity, cell-based
[33] = MRT in cynomolgus monkey at 0.3 mg/kg, po; format: ADME, organism-based, Macaca fascicularis; settings: in vivo

T1 sequence (Q12809 whole entry): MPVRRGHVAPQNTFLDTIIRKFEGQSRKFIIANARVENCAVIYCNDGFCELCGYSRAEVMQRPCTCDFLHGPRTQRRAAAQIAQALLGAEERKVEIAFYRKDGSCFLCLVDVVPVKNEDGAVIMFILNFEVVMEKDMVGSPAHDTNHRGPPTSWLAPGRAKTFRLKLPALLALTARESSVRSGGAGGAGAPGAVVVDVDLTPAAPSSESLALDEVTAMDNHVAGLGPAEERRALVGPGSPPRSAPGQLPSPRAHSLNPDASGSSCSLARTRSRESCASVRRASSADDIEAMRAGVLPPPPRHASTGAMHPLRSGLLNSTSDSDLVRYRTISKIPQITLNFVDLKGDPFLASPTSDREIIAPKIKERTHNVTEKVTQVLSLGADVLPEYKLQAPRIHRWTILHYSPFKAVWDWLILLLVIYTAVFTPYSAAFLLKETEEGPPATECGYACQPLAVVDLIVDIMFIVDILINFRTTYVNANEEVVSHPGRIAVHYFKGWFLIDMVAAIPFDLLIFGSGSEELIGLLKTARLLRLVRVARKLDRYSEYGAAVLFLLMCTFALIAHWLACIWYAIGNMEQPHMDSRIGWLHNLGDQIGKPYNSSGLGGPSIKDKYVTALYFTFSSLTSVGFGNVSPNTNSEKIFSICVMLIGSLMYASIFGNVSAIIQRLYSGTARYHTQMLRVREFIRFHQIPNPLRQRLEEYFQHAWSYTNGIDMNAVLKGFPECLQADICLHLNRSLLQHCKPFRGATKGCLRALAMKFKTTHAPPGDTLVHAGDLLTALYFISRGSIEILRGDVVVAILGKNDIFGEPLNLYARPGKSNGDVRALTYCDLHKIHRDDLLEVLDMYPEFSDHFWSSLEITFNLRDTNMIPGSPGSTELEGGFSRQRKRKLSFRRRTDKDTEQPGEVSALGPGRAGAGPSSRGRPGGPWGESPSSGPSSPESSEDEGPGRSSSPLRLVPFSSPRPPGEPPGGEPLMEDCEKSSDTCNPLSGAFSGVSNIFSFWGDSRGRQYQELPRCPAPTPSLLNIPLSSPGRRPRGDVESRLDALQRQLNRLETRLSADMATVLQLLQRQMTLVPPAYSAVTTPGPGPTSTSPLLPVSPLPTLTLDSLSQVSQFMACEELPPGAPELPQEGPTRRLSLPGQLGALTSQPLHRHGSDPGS
Sequence of P-glycoprotein (ABCB1) (P08183 whole entry): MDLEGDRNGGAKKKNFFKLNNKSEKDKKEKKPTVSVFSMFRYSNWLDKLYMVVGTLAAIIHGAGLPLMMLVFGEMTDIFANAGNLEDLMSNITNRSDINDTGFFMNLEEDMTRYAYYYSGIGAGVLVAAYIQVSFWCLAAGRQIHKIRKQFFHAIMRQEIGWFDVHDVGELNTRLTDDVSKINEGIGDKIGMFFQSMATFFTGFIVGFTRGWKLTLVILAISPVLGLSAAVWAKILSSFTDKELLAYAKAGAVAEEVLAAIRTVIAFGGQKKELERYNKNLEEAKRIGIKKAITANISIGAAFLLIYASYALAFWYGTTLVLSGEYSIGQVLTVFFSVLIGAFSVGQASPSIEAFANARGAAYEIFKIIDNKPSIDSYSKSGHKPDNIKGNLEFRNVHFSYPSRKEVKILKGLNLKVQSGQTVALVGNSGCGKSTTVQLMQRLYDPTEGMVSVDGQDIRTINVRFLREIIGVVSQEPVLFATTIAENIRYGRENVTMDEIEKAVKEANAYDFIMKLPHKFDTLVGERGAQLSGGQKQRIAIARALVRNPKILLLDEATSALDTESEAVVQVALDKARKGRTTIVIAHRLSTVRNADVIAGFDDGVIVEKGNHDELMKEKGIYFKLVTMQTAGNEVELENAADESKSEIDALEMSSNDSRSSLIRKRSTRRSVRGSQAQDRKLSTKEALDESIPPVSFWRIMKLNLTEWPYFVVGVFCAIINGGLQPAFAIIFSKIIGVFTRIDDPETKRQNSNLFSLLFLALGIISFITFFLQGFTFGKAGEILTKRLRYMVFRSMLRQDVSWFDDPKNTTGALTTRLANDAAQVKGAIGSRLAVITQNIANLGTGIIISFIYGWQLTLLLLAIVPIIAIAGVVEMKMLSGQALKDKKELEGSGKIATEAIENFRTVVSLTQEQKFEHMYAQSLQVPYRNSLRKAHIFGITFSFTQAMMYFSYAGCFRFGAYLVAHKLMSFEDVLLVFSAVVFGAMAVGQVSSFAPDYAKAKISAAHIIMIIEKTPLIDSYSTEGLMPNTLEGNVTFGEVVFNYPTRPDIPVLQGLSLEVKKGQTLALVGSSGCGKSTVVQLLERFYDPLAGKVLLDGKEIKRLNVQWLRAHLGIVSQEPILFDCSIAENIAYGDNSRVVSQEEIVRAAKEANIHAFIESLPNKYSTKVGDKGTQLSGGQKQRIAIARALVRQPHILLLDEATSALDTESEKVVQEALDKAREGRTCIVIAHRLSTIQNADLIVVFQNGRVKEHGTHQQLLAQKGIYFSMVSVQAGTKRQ

fraction unbound [2]: 0.02 | CLint [3]: 41.7 µL/min/1e6 cells | CLint [4]: 2.3 µL/min/1e6 cells | efflux ratio (P-glycoprotein): 3.3 | Vd [5]: 1.5 L/kg | MRT [6]: 3.2 h | CL free [7]: 344 mL/min/kg | clearance [8]: 8.6 mL/min/kg | Vd [9]: 3.1 L/kg | CLint [10]: 11.4 µL/min/1e6 cells | MRT [12]: 3 h | MRT [13]: 2.3 h | bioavailability [14]: 44% | CLint [15]: 4.3 µL/min/1e6 cells | bioavailability [17]: 5% | IC50 [18]: 0.003 µM | bioavailability [19]: 57% | Vdu [20]: 115 L/kg | Vdu [21]: 171 L/kg | efflux ratio (P-glycoprotein (ABCB1)): 1.5 | Vdu [22]: 60 L/kg | MRT [23]: 2.2 h | MRT [24]: 1.4 h | clearance [25]: 37 mL/min/kg | clearance [26]: 26 mL/min/kg | CL free [27]: 1370 mL/min/kg | Papp [28]: 41.9 ×10⁻⁶ cm/s | fraction unbound [29]: 0.03 | fraction unbound [30]: 0.02 | CL free [31]: 1238 mL/min/kg
Structure (SMILES): Cc1cccc(-c2ccc(/C=C/[C@@H]3[C@@H]4[C@@H](C)OC(=O)[C@]4(O)CC(F)(F)[C@H]3C)nc2)c1C#N
inhibition in vivo at 0.3 mg/kg [1]: 100% | inhibition in vivo at 1 mg/kg [11]: 100% | IC50 [16]: 9 µM | IC50 [32]: 9 µM

IC50 [18]: 0.134 µM
Structure (SMILES): CC1=NO[C@@]2(C1)C[C@H]1C(=O)O[C@H](C)[C@H]1[C@@H](c1ccc(-c3cccc(F)c3)cn1)[C@@H]2C

fraction unbound [2]: 0.05 | CLint [3]: 11.8 µL/min/1e6 cells | CLint [4]: 17.2 µL/min/1e6 cells | efflux ratio (P-glycoprotein): > 71 | Vd [5]: 0.81 L/kg | CL free [7]: 140 mL/min/kg | clearance [8]: 7.7 mL/min/kg | Vd [9]: 1.2 L/kg | CLint [10]: 19.7 µL/min/1e6 cells | MRT [12]: 1.8 h | MRT [13]: 6.2 h | bioavailability [14]: 10% | CLint [15]: 7.3 µL/min/1e6 cells | bioavailability [17]: 19% | IC50 [18]: 0.007 µM | bioavailability [19]: 13% | Vdu [20]: 19 L/kg | Vdu [21]: 42 L/kg | efflux ratio (P-glycoprotein (ABCB1)): > 65 | Vdu [22]: 15 L/kg | MRT [24]: 0.44 h | clearance [25]: 46 mL/min/kg | clearance [26]: 5.6 mL/min/kg | CL free [27]: 742 mL/min/kg | Papp [28]: 32.3 ×10⁻⁶ cm/s | fraction unbound [29]: 0.06 | fraction unbound [30]: 0.06 | CL free [31]: 112 mL/min/kg
Structure (SMILES): CCNC(=O)N1C[C@H]2[C@H](C)[C@@H](C)[C@H](/C=C/c3ccc(-c4ccccc4C#N)cn3)[C@@H]3[C@@H](C)OC(=O)[C@@]32C1
inhibition in vivo at 0.3 mg/kg [1]: 100% | inhibition in vivo at 1 mg/kg [11]: 100% | IC50 [16]: 9.2 µM | IC50 [32]: 9 µM

IC50 [18]: 0.003 µM
Structure (SMILES): C[C@H]1[C@H](c2ccc(-c3cccc(F)c3)cn2)[C@@H]2[C@@H](C)OC(=O)[C@@H]2C[C@@H]1C

MRT [33]: 68 h | IC50 [18]: 0.008 µM
Structure (SMILES): C[C@H]1OC(=O)[C@]2(O)CC(F)(F)[C@@H](C)[C@H](/C=C/c3ccc(-c4cccc(F)c4)cn3)[C@H]12
IC50 [16]: 29 µM

IC50 [18]: 0.028 µM
Structure (SMILES): C[C@@H]1[C@@H](C)[C@@H]2CN(C)C[C@@]23C(=O)O[C@H](C)[C@H]3[C@H]1/C=C/c1ccc(-c2ccccc2C#N)cn1
IC50 [16]: 14.8 µM

MRT [33]: > 20 h | IC50 [18]: 0.008 µM | MRT [23]: 5.5 h
Structure (SMILES): CC[C@H]1[C@H](/C=C/c2ccc(-c3ccccc3C#N)cn2)[C@@H]2[C@@H](C)OC(=O)[C@]2(O)CC1(F)F
IC50 [16]: 17 µM

IC50 [18]: 0.007 µM
Structure (SMILES): CNC(=O)N1C[C@H]2[C@H](C)[C@@H](C)[C@H](/C=C/c3ccc(-c4ccccc4C#N)cn3)[C@@H]3[C@@H](C)OC(=O)[C@@]32C1
IC50 [16]: 50 µM
